# US20230183303A1, “Therapeutic Potential of Peptides from the "Netrin-Like" Domain of the FRZB Protein” (Université de Lorraine, priority 2020, published 2023)
# How the values were obtained:
# MC3T3-E1 cells [1] = assay: qRT-PCR relative expression of genes of interest in MC3T3-E1 cells (osteogenic differentiation); format: cell-based, mouse
# Text: (§1) Each time point was processed in three technical replicates. The medium was changed every two days.
# Total RNA was isolated using the Nucleospin RNA II kit (Macherey-Nagel) and reverse-transcribed using the MMLV reverse transcriptase (Thermo Fisher Scientific) following the manufacturers' instructions. The iTaq SYBR green qPCR master mix (BioRad) was used to assess the mRNA expression of target genes of interest. Primer sequences can be provided upon request. The following PCR conditions were used: 1 minute at 95° C., 40 cycles of 15 sec of denaturation at 95° C., followed by 1 minute of annealing-elongation at 60° C. Melting curve analysis was performed to determine the amplification of the specific product. Results were expressed using the comparative threshold method and were normalized to housekeeping gene PPIA (Peptidylprolyl Isomerase A) mRNA level for ATDC5 cells and MACs, or normalized to housekeeping gene S29 (ribosomal protein S29) mRNA level for MC3T3-E1 cells. The Via7 real-time PCR system (Thermo Fisher Scientific) was used for qRT-PCR measurements.
# Briefly, MC3T3-E1 cells were differentiated during 14 days as mentioned previously. […] In the same experiment, we also used MC3T3-E1 cells stably overexpressing the NTN domain. Treated cells and NTN overexpressing cells were compared to control cells (CTL).
# RNA was isolated and qPCR was performed for ANKRD (YAP/TAZ target gene, indicator of the pathway activity) (FIG. 21).
# MC3T3-E1 cells [2] = assay: Quantification of mineralization (Alizarin Red) in MC3T3-E1 cells; format: cell-based, mouse; details: PEP16 at 100 or 300 ng/mL; day 21; absorbance 405 nm
# Protocol: as §1
# Cells were washed with PBS and fixed with 95% ice-cold ethanol for 30 min at 4° C. for staining. After washing with distilled water, cells were stained with Alizarin Red staining (1% Alizarin Red S (Sigma)), washed three times with distilled water to remove unbound staining and air-dried. Quantification of the staining was performed by dissolving the mineral content in 800 μl of 10% acetic acid for 30 minutes. Then, the wells were scraped, the content of each well was harvested in a separate tube and vortexed for 30 seconds. Each tube was heated at 85° C. for 10 minutes, then put on ice for 5 minutes. Finally, tubes were centriguated at 13000 rpm for 15 minutes, the liquid phase was harvested and mixed with 100 μl of 10% ammonium hydroxide. Absorbance was measured at 405 nm with a spectrophotometer (Varioskan Flash, Thermo Fisher Scientific).
# The mineralization level was evaluated by a biochemical assay as previously described after 21 days of differentiation culture. Results are representative of 3 experiments.
# CamKII pathway [3] = assay: Western blot of CamKII pathway activation in MC3T3-E1 cells; format: cell-based, mouse; details: PEP16 at 300 or 1000 ng/mL; early osteogenesis stages
# Text: as §1
# [4] = test system: 7×TCF/LEF response elements (Super 8×TOPFlash reporter); assay: Promoter activation assay, Super 8×TOPFlash luciferase reporter in ATDC5 cells stimulated with Wnt3a; format: cell-based, mouse; details: peptide at 300 ng/ml; 10 or 100 ng/mL recombinant Wnt3a; 24 h
# Protocol: (§2) Results were normalized by-cotransfecting each of the above plasmid with the tyrosine kinase-renilla luciferase plasmid (Promega). Transfections were carried out using the Dharmafect kb transfection reagent (Fisher Scientific). Briefly, reporter plasmids and transfection reagent were diluted in serum-free medium, and then the diluted Dharmafect kb was added to the plasmids for an incubation time of 10 minutes at room temperature. During that time, cells were rinsed with PBS and were placed in fresh maintenance medium. When incubation was over, the mixture of transfection reagent-plasmids was dispensed in each well. Stimulations (with Wnt3a and/or PEP16 and/or PEP16bis) were carried out the next day.
# [5] = test system: 8×YAP response elements (8×GTIIC reporter); details: PEP16 at 30 ng/ml; 24 h
# Protocol: as §2
# MMP13 = MMP13 enzymatic activity in culture supernatants of human articular cartilage explants (osteoarthritis); format: cell-based; details: PEP16 at 300 ng/mL for 7 days (3 stimulations); explants from 3 patients with end-stage osteoarthritis
# Protocol: Explants of human articular cartilage were obtained from total knee replacement surgeries, from the orthopedic department from the CHRU of Nancy (Pr. Didier Mainard). Samples were washed three times in 1% AB/PBS and incubated for 24 h in growth medium (DMEM-F12, containing 1% AB (Gibco), 10% FBS (Gibco) and 5% L-glutamine (Thermoscientific). Explants were then stimulated with PEP16 at the concentration of 300 ng/ml during 7 days. The culture supernatants were then harvested in order to perform MMP13 enzymatic activity assay.
# The MMP13 enzymatic activity was assessed using the MMP13 fluorogenic substrate (Merck Millipore). Briefly, culture supernatants harvested at the end of the different experiments were mixed with 1.5 mM of 4-aminophenylmercuric acetate, and incubated for 1 h at 37° C., in order to turn every pro-MMPs into active MMPs. Then, the fluorogenic substrate was added, and the mixture was incubated for 3 h at 37° C. Fluorescence was evaluated using the following parameters, excitation 325 nm and emission 393 nm, on the Varioskan Flash device (Thermo Fisher Scientific). Recombinant human MMP13 was used as a positive control (Merck Millipore). Negative control consisted in growth medium.
# CamKII pathway [6] = assay: Western blot of CamKII pathway activation in ATDC5 micromasses; format: cell-based, mouse; details: PEP16 at 100 and 300 ng/mL; pre-mineralization phase of chondrogenesis (D14)
# Protocol: Mouse chondrogenic ATDC5 cells (cartilage-specific chondrogenic strain) were cultured until confluent in maintenance medium containing 1:1 Dulbecco's modified Eagle's medium (DMEM): Ham's F-12 mix (Gibco) supplemented with 1% antibiotic (AB, Penicillin-Streptomycin, Gibco), 5% fetal bovine serum (FBS) (Gibco) and enriched with […] human transferrin (Sigma) and 30 nM sodium selenite (Sigma). Cells were trypsinized, washed and resuspended at 2.10^7 cells/mL in a chondrogenic medium made of maintenance medium enriched by 1× of ITS premix (resulting in 10 μg/mL insulin, 10 μg/mL human transferrin and 30 nM sodium selenite) (Life technologies). One droplet of cell suspension (10 μL) was placed at the center of each well of a 24-well plate. Cells were allowed to adhere for 2 h at 37° C., followed by addition of 500 μL chondrogenic medium supplemented. […] After 14 days, induction of hypertrophic differentiation and mineralization was induced by the mineralization medium made of α-MEM medium (Gibco) containing 1% AB, 5% FBS, 5 μg/ml human transferrin, 1× of ITS premix, 50 μg/ml ascorbic acid-2-phosphate (AA) (Sigma) and 10 mM β-glycerophosphate (BGP) (Sigma). […] Micromasses were collected at time points 1, 7, 14 21 and 28 days. Each time point was processed in three technical replicates. The medium was changed every other day. […]
# [7] = PEP16 at 100 or 300 ng/mL, day 7, 14, 21, normalized with S29
sequence,measurement,setting,value
DRLGKKVKRWDMKLRH (PEP16) [peptide derived from the netrin-like domain of the FRZB protein],expression of ANKRD (YAP/TAZ target gene),"MC3T3-E1 cells [1]; PEP16 at 300 ng/ml or cells stably overexpressing the NTN domain, D1 and D14, vs control cells",managed to do so
same,relative expression level of osteocalcin,MC3T3-E1 cells [1]; [7],favoured the induction of the expression
same,relative expression level of osterix,MC3T3-E1 cells [1]; [7],favoured the induction of the expression
same,mineralization quantification (mineral content in the extracellular matrix),MC3T3-E1 cells [2],significantly increased the accumulation of mineral content
same,CamKII pathway activation,CamKII pathway [3],efficiently increased the activation
same,activity of the canonical Wnt pathway in the Super TOPFlash luciferase reporter system (Firefly/renilla ratio),[4],significantly reduce the activity
same,activity of the Hippo/YAP/TAZ pathway in a luciferase-type reporter system (Firefly/renilla ratio),[5],significantly reduced the activity
same,MMP13 enzymatic activity in culture supernatant,MMP13,capable of reducing the enzymatic activity
same,CamKII pathway activation (P-CamKII over total),CamKII pathway [6],increased the activation of the CamKII pathway
